Data on 1 molecule can be found in patent US20240132463A1, “SUBSTITUTED N-(2-(2,6-DIOXOPIPERIDIN-3-YL)-1,3-DIOXOISOINDOLIN-5-YL)ARYLSULFONAMIDE ANALOGS AS MODULATORS OF CEREBLON PROTEIN” (ST. JUDE CHILDREN'S RESEARCH HOSPITAL, INC., priority 2020, published 2024).

A short description of series [1]: Aqueous solubility assay. The format is physicochemical. Conditions: aqueous solubility at pH = 7.4, triplicate. Here is the method: Solubility assays were carried out on a Biomek FX lab automation workstation (Beckman Coulter, Inc., Fullerton, CA) using μSOL Evolution software (pION Inc., Woburn, MA). 10 μL of 10 mM compound stock (in DMSO) was added to 190 μL 1-propanol to make a reference stock plate. 5 μL from this reference stock plate were mixed with 70 μL 1-propanol and 75 μL citrate phosphate-buffered saline (PBS;isotonic) to make the reference plate, and the UV spectrum (250-500 nm) of the reference plate was read. 6 μL of 10 mM test compound stock was added to 594 μL buffer in a 96-well storage plate and mixed. The storage plate was sealed and incubated at RT for 18 h. The suspension was then filtered through a 96-well filter plate (pION Inc., Woburn, MA). 75 μL of filtrate was mixed with 75 μL 1-propanol to make the sample plate, and the UV spectrum of the sample plate was read. Calculations were carried out with μSOL Evolution software based on the area under the curve (AUC) of the UV spectrum of the sample and reference plates. All compounds were tested in triplicate.

Series [2] can be described thus: Plasma protein binding assay (mouse). The format is in vitro ADME. Here is the method:
(§1) Stock solutions were prepared at 10 mM in DMSO. Dulbecco's phosphate buffered saline (DPBS; pH 7.4) was obtained from Invitrogen (Carlsbad, CA). Single-Use RED (rapid equilibrium dialysis) device was obtained from Thermo scientific (Rockford, IL). Human and mouse plasma were obtained from GeneTex (Irvine, CA). Sample preparation for plasma protein binding was modified from Waters' method (see Waters, N.J., et al., J Pharm Sci. 2008 October; 97(10):4586-95). The Teflon base plate with the RED inserts was used without any pre-conditioning the membrane inserts. Plasma was thawed and centrifuged at 1000 rpm for 10 min to remove any particulates. Each compound was prepared at 10 μM in human or mouse plasma. Spiked plasma solutions (300 μL) were placed into the sample chamber (indicated by the red ring) and 500 μL of DPBS into the adjacent chamber. The plate was sealed and incubated at 37° C. on an orbital shaker (100 rpm) for 4 hours. After incubation, the seal was removed from the RED plate and the volume of the insert confirmed-little to no volume change occurred. […] The test compound concentrations were quantified in both buffer and plasma chambers via peak areas relative to the internal standard. The percentage of the test compound bound to plasma was calculated on following equations: % Free=(Concentration buffer chamber/concentration plasma chamber)×100% and % Bound=100%-% Free.

Series [3] in a line: Plasma protein binding assay (human). The class given is in vitro ADME. Here is the method:
as §1

A short description of series [4]: Pharmacokinetics (PK) study in CD1 mice. The format is in vivo, mouse. Here is the method:
Healthy female CD1 mice (8-12 weeks old) weighing between 20 to 30 g were procured from Global, India. Three mice were housed in each cage. Temperature and humidity were maintained at 22±3° C. and 30-70%, respectively and illumination was controlled to give a sequence of 12 hr light and 12 hr dark cycle. Temperature and humidity were recorded by auto-controlled data logger system. All the animals were provided laboratory rodent diet (Envigo Research private Ltd, Hyderabad). Reverse osmosis water treated with ultraviolet light was provided ad libitum. Formulation vehicle: 5% v/v NMP: 5% v/v Solute HS-15 and 90% v/v normal saline. […] The dosing volume for intravenous was 5 mL/kg and for oral administration 10 mL/kg. Blood samples (approximately 60 μL) were collected under light isoflurane anesthesia (Surgivet®) from retro orbital plexus from a set of three mice at 0.08 (for IV only), 0.25, 0.5, 1, 2, 4, 6 (for PO only), 8, 12 and 24 hr. Immediately after blood collection, plasma was harvested by centrifugation at 4000 rpm, 10 min at […] and samples were stored at −70±10° C. until bioanalysis. […] Non-Compartmental-Analysis tool of Phoenix WinNonlin® (Version 8.0) was used to assess the pharmacokinetic parameters. Peak plasma concentration (Cmax) and time for the peak plasma concentration (Tmax) were the observed values. The areas under the concentration time curve (AUClast and AUCinf) were calculated by linear trapezoidal rule. The terminal elimination rate constant, ke was determined by regression analysis of the linear terminal portion of the log plasma concentration-time curve. Clearance was estimated as Dose/AUCinf and Vss as CL*MRT. The oral bioavailability was calculated as ratio of dose normalized AUC of oral and intravenous group multiplied by 100.

Series [5] relates to caspase 3/7. In words: Caspase 3/7 activity assay. The class given is cell-based, human. Conditions: MV4-11 cells, Caspase-Glo, 4, 8 and 24 hours, 10 and 100 nM.
Series [6] concerns MV4-11 cells. The series can be described thus: Lenalidomide competition assay. To be noted: co-treatment with lenalidomide 10 μM, 72 h. The class given is cell-based, human.
Description: Compounds were screened in human cancer cell lines and each cell line was cultured in the complete medium recommended by the vendor and seeded in Corning 8804BC white 384-well assay plates at density of 1,000, 1,000, 1,000, 1,500 and 7,500 cells per well, for MV4-11, HD-MB03, MB004, MB002 and MHH-CALL4 cells respectively. After overnight incubation at 37° C. in a humidified 5% CO2 incubator, cells were treated with compounds in dose-response format using a Pintool on a Biomek FXP Laboratory Automation Workstation (Beckman Coulter). […] After 72 h incubation, cell proliferation was assessed using Cell Titer-Glo (CTG) luminescent cell viability assay (Promega) according to the manufacturer's instruction. Luminescence signal was measured using an Envision plate reader (Perkin-Elmer).
The subject of series [7] is CRBN knockout MV4-11 cells. In words: Cell viability in CRBN knockout MV4-11 cells. The class given is cell-based, human. Conditions: CRBN knockout vs wild-type MV4-11 cells.
Description: MV-4-11 cell line was purchased from the American Type Culture Collection (ATCC, Manassas, VA). The cells were cultured according to recommendations in IMDM cell culture media (ATCC). Exponentially growing MV-4-11 cells were plated at 1,000 cells per well in Corning 8804BC white 384-well assay plates and incubated overnight at 37° C. in a humidified 5% CO2 incubator. Compounds were transferred to the assay plate from a dose-response plate using a Pintool on a Biomek FXP Laboratory Automation Workstation (Beckman Coulter). Cytotoxicity was determined following 72 hours of incubation using Promega Cell Titer Glo reagent according to the manufacturer's recommendation. Luminescence was measured on an Envision plate reader (Perkin-Elmer).
CRBN-deficient MV4:11 cells were generated using CRISPR-Cas9 technology. […] Five days post nucleofection, cells were single-cell sorted by FACs to enrich for GFP+(transfected) cells, clonally selected, and verified for the desired targeted modification via targeted deep sequencing using gene specific primers with partial Illumina adapter overhangs (hCRBN.F—5′-[sequence]-3′ (SEQID: 6) and hCRBN.R—5′-[sequence]-3′, (SEQID: 7); overhangs not shown) and analyzed using CRIS.py (Ref. 36).

For `O=C1CCC(N2C(=O)c3ccc(NS(=O)(=O)c4ccccc4OC(F)(F)F)cc3C2=O)C(=O)N1` (stereo not shown) [Compound 1, N-(2-(2,6-dioxopiperidin-3-yl)-1,3-dioxoisoindolin-5-yl)-2-(trifluoromethoxy)benzenesulfonamide], the Sol. in series [1] came to 67 µM. Also, the Plasma protein binding was found to be 99.3% in series [2] and 99.1% in series [3]. In addition, the clearance in series [4] (3 mg/kg IV) was determined as 0.46 mL/min/kg. The volume of distribution in series [4] (3 mg/kg IV) turned out to be 0.15 L/kg. Besides, the oral bioavailability in series [4] (10 mg/kg PO vs 3 mg/kg IV) came out at 84%. Further, in series [4] (female, CD1, mouse, plasma, 3 mg/kg IV, read-out: terminal elimination half-life (t1/2) (converted)), the half-life was 204 min. In addition, the caspase activation entry in series [5] is reported as “measurable at 8 hours”. In addition, the “antiproliferative effect in presence of lenalidomide” value in series [6] is given as “abrogating the antiproliferative effects”. Moreover, the “antiproliferative activity in absence of CRBN” value in series [7] was “abolished”.
